Test results published in patent publication US20250051327A1, “MALT-1 MODULATORS” (EXSCIENTIA AI LIMITED, priority 2020, published 2025).

Tests used:
[1] = system: IL-2 secretion by human effector memory T cells (TEM); experiment: Effector memory T cells IL-2 release assay; assay type: cell-based; details: T-cell; human CD4+ effector memory T cells, CD3/CD28 bead stimulation, 24 h; read-out: CD4TC IL2 IC50
Method in brief: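 Human CD4+ effector memory T cells from healthy-donor buffy coats were stimulated with anti-CD3/CD28 Dynabeads and exposed to 10 semi-log compound doses (0.1% DMSO) for 24 h at 37 °C. Supernatant IL-2 was measured by HTRF, and IC50 came from a 4-parameter logistic fit to maximal IL-2. Viability was checked by flow cytometry.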

[2] = molecular target: Recombinant human MALT-1 (amino acids 340-824) (Homo sapiens (Human), UniProt Q9UDY8); experiment: MALT-1 inhibition assay (fluorogenic substrate Ac-LRSR-Rh110-DP); assay type: biochemical; details: recombinant human MALT-1, substrate Ac-LRSR-Rh110-DP
Method in brief: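 MALT-1 at 3 nM final was reacted with 10 μM Ac-LRSR-Rh110-DP, with substrate addition starting the reaction. Incubation ran 60 minutes at 25° C in the dark. Percent inhibition from fluorescence across doses was fitted to a 4-parameter logistic to give IC50.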

Chain of Recombinant human MALT-1 (amino acids 340-824) (Q9UDY8 340-824): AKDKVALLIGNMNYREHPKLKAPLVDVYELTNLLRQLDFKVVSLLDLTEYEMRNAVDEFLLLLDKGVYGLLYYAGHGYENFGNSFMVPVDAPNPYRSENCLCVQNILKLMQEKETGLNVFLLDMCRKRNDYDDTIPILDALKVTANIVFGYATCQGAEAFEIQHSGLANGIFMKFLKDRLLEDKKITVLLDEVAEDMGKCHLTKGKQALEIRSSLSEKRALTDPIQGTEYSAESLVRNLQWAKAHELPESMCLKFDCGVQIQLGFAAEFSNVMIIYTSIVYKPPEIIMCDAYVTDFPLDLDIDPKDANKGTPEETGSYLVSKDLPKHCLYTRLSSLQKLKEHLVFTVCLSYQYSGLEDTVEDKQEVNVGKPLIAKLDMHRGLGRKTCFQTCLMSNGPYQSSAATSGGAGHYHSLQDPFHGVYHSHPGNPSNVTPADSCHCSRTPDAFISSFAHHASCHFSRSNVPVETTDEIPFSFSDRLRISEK

| IC50 [1] | IC50 [2] | Compound |
| --- | --- | --- |
| 325 nM | 211 nM | CN(C(=O)C1CCCCO1)[C@@H](c1ccc(N2CCCc3c2cnc2cc(Cl)nn32)cc1)C(F)(F)F (stereo partly drawn) [CPD0021569, N-[(1S)-1-(4-{4-chloro-2,3,7,10-tetraazatricyclo[7.4.0.0^2,6]trideca-1(9),3,5,7-tetraen-10-yl}phenyl)-2,2,2-trifluoroethyl]-N-methyloxane-2-carboxamide] |
| 157 nM | 92 nM | CN(C(=O)[C@H]1CCCS(=O)(=O)N1)[C@@H](c1ccc(N2CCCc3c2cnc2cc(Cl)nn32)cc1)C(F)(F)F (relative stereo) [CPD0073560, (3rel-R)-N-[(1S)-1-(4-{4-chloro-2,3,7,10-tetraazatricyclo[7.4.0.0^2,6]trideca-1(9),3,5,7-tetraen-10-yl}phenyl)-2,2,2-trifluoroethyl]-N-methyl-1,1-dioxo-1λ^6,2-thiazinane-3-carboxamide] |
| 142 nM | 147 nM | CN(C(=O)C1CCCO1)[C@@H](c1ccc(N2CCCc3c2cnc2cc(Cl)nn32)cc1)C(F)(F)F (stereo partly drawn) [CPD0021570, N-[(1S)-1-(4-{4-chloro-2,3,7,10-tetraazatricyclo[7.4.0.0^2,6]trideca-1(9),3,5,7-tetraen-10-yl}phenyl)-2,2,2-trifluoroethyl]-N-methyloxolane-2-carboxamide] |
| 64 nM | 81 nM | COC[C@@]1(C)CCN(c2ccc([C@H](N(C)C(=O)[C@H]3CC[S@@](=N)(=O)CC3)C(F)(F)F)cc2)c2cnc3cc(Cl)nn3c21 (relative stereo) [CPD0073133, (1rel-s,4rel-s)-N-[(1S)-1-[4-[(13rel-S)-4-chloro-13-(methoxymethyl)-13-methyl-2,3,7,10-tetrazatricyclo[7.4.0.0^2,6]trideca-1(9),3,5,7-tetraen-10-yl]phenyl]-2,2,2-trifluoro-ethyl]-1-imino-N-methyl-1-oxo-1λ^6-thiane-4-carboxamide] |
| 128 nM | 123 nM | CN(C(=O)C1CS(=O)(=O)C1)[C@@H](c1ccc(N2CCCc3c2cnc2cc(Cl)nn32)cc1)C(F)(F)F [CPD0021575, N-[(1S)-1-(4-{4-chloro-2,3,7,10-tetraazatricyclo[7.4.0.0^2,6]trideca-1(9),3,5,7-tetraen-10-yl}phenyl)-2,2,2-trifluoroethyl]-N-methyl-1,1-dioxo-1λ^6-thietane-3-carboxamide] |
| 68 nM | 59 nM | CN(C(=O)C1CCS(=O)(=O)CC1)[C@@H](c1ccc(N2CCCc3c2cnc2cc(Cl)nn32)cc1)C(F)(F)F [CPD0019184, N-[(1S)-1-(4-{4-chloro-2,3,7,10-tetraazatricyclo[7.4.0.0^2,6]trideca-1(9),3,5,7-tetraen-10-yl}phenyl)-2,2,2-trifluoroethyl]-N-methyl-1,1-dioxo-1λ^6-thiane-4-carboxamide] |
| 143 nM | 154 nM | CN(C(=O)[C@H]1CCCS(=O)(=O)C1)[C@@H](c1ccc(N2CCCc3c2cnc2cc(Cl)nn32)cc1)C(F)(F)F [CPD0021809] |
| 174 nM | 87 nM | CN(C(=O)C1CN(S(C)(=O)=O)C1)[C@@H](c1ccc(N2CCCc3c2cnc2cc(Cl)nn32)cc1)C(F)(F)F [CPD0073238, N-[(1S)-1-(4-{4-chloro-2,3,7,10-tetraazatricyclo[7.4.0.0^2,6]trideca-1(9),3,5,7-tetraen-10-yl}phenyl)-2,2,2-trifluoroethyl]-1-methanesulfonyl-N-methylazetidine-3-carboxamide] |
| 940 nM | 432 nM | COc1ccc2ncc3c(c2n1)C(O)CCN3c1ccc([C@H](N(C)C(=O)C2CCS(=O)(=O)CC2)C(F)(F)F)cc1 (stereo partly drawn) [CPD0072449, N-methyl-1,1-dioxo-N-[(1S)-2,2,2-trifluoro-1-[4-(10-hydroxy-2-methoxy-9,10-dihydro-8H-pyrido[2,3-f][1,7]naphthyridin-7-yl)phenyl]ethyl]thiane-4-carboxamide] |
| 122 nM | 80 nM | CN1C[C@@H](C(=O)N(C)[C@@H](c2ccc(N3CCCc4c3cnc3cc(Cl)nn43)cc2)C(F)(F)F)CCC1=O (relative stereo) [CPD0073196, (3rel-S)-N-[(1S)-1-(4-{4-chloro-2,3,7,10-tetraazatricyclo[7.4.0.0^2,6]trideca-1(9),3,5,7-tetraen-10-yl}phenyl)-2,2,2-trifluoroethyl]-N,1-dimethyl-6-oxopiperidine-3-carboxamide] |
| 33 nM | 57 nM | CN(C(=O)[C@H]1CC[S@+]([O-])CC1)[C@@H](c1ccc(N2CCC3(CC3)c3c2cnc2cc(Cl)nn32)cc1)C(F)(F)F (relative stereo) [CPD0072779, (1rel-r,4rel-r)-N-[(1S)-1-(4-{4′-chloro-2′,3′,7′,10′-tetraazaspiro[cyclopropane-1,13′-tricyclo[7.4.0.0^2,6]tridecane]-1′(9′),3′,5′,7′-tetraen-10′-yl}phenyl)-2,2,2-trifluoroethyl]-N-methyl-1-oxo-1λ^4-thiane-4-carboxamide] |
| 748 nM | 368 nM | CN(C(=O)CN1CCNCC1)[C@@H](c1ccc(N2CCCc3c2cnc2cc(Cl)nn32)cc1)C(F)(F)F [CPD0021745, N-[(1S)-1-(4-{4-chloro-2,3,7,10-tetraazatricyclo[7.4.0.0^2,6]trideca-1(9),3,5,7-tetraen-10-yl}phenyl)-2,2,2-trifluoroethyl]-N-methyl-2-(piperazin-1-yl)acetamide] |
| 61 nM | 27 nM | CC1CCN(c2ccc([C@H](N(C)C(=O)[C@H]3CC[S@](=N)(=O)CC3)C(F)(F)F)cc2)c2cnc3cc(Cl)nn3c21 (some centres unmarked) [CPD0072813] |
| 1680 nM | 863 nM | COc1ccc2ncc(N(C)c3ccc([C@H](N(C)C(=O)C4CCS(=O)(=O)CC4)C(F)(F)F)cc3)cc2n1 [CPD0021585, N-methyl-1,1-dioxo-N-[(1S)-2,2,2-trifluoro-1-{4-[(6-methoxy-1,5-naphthyridin-3-yl)(methyl)amino]phenyl}ethyl]-1λ^6-thiane-4-carboxamide] |
| 82 nM | 68 nM | CC1CCN(c2ccc([C@H](N(C)C(=O)C3CCS(=O)(=O)CC3)C(F)(F)F)cc2)c2cnc3cc(Cl)nn3c21 (single isomer, unassigned) [CPD0021811] |
| 994 nM | 173 nM | CN(C(=O)[C@H]1CC12CCS(=O)(=O)CC2)[C@@H](c1ccc(N2CCCc3c2cnc2cc(Cl)nn32)cc1)C(F)(F)F (relative stereo) [CPD0073922, (1rel-S)-N-[(1S)-1-(4-{4-chloro-2,3,7,10-tetraazatricyclo[7.4.0.0^2,6]trideca-1(9),3,5,7-tetraen-10-yl}phenyl)-2,2,2-trifluoroethyl]-N-methyl-6,6-dioxo-6λ^6-thiaspiro[2.5]octane-1-carboxamide] |
| 56 nM | 74 nM | CN(C(=O)[C@H]1CC[S@@](=N)(=O)CC1)[C@@H](c1ccc(N2CCC(C)(C)c3c2cnc2cc(Cl)nn32)cc1)C(F)(F)F (relative stereo) [CPD0072784, (1rel-s,4rel-s)-N-[(1S)-1-(4-{4-chloro-13,13-dimethyl-2,3,7,10-tetraazatricyclo[7.4.0.0^2,6]trideca-1(9),3,5,7-tetraen-10-yl}phenyl)-2,2,2-trifluoroethyl]-1-imino-N-methyl-1-oxo-1λ^6-thiane-4-carboxamide] |
| 139 nM | 130 nM | CC(C)C(=O)N(C)[C@@H](c1ccc(N2CCCc3c2cnc2cc(Cl)nn32)cc1)C(F)(F)F [CPD0019340, N-[(1S)-1-(4-{4-chloro-2,3,7,10-tetraazatricyclo[7.4.0.0^2,6]trideca-1(9),3,5,7-tetraen-10-yl}phenyl)-2,2,2-trifluoroethyl]-N,2-dimethylpropanamide] |
| 845 nM | 433 nM | O=C(N[C@@H](c1ccc(N2CCCc3c2cnc2cc(Cl)nn32)cc1)C(F)(F)F)C1CCS(=O)(=O)CC1 [CPD0021755, N-[(1S)-1-(4-{4-chloro-2,3,7,10-tetraazatricyclo[7.4.0.0^2,6]trideca-1(9),3,5,7-tetraen-10-yl}phenyl)-2,2,2-trifluoroethyl]-1,1-dioxo-1λ^e-thiane-4-carboxamide] |
| 58 nM | 33 nM | CN(C(=O)[C@H]1CC[S@+]([O-])CC1)[C@@H](c1ccc(N2CCC3(CC3)c3c2cnc2cc(F)nn32)cc1)C(F)(F)F (relative stereo) [CPD0072933, (1rel-r,4rel-r)-N-methyl-1-oxo-N-[(1S)-2,2,2-trifluoro-1-(4-{4′-fluoro-2′,3′,7′,10′-tetraazaspiro[cyclopropane-1,13′-tricyclo[7.4.0.0^2,6]tridecane]-1′(9′),3′,5′,7′-tetraen-10′-yl}phenyl)ethyl]-1λ^4-thiane-4-carboxamide] |
| 250 nM | 53 nM | CN(C(=O)[C@H]1CNC(=O)C1)[C@@H](c1ccc(N2CCCc3c2cnc2cc(Cl)nn32)cc1)C(F)(F)F (stereo in doubt) [CPD0073564, (3rel-R)—N-[(1S)-1-(4-{4-chloro-2,3,7,10-tetraazatricyclo[7.4.0.0^2,6]trideca-1(9),3,5,7-tetraen-10-v}phenyl)-2,2,2-trifluoroethyl]-N-methyl-5-oxopyrrolidine-3-carboxamide] |
| 35 nM | 73 nM | CN(C(=O)[C@H]1CC[S@@+]([O-])CC1)[C@@H](c1ccc(N2CCC(C)(C)c3c2cnc2cc(Cl)nn32)cc1)C(F)(F)F (relative stereo) [CPD0072776, (1rel-s,4rel-s)-N-[(1S)-1-(4-{4-chloro-13,13-dimethyl-2,3,7,10-tetraazatricyclo[7.4.0.0^2,6]trideca-1(9),3,5,7-tetraen-10-yl}phenyl)-2,2,2-trifluoroethyl]-N-methyl-1-oxo-1λ^4-thiane-4-carboxamide] |
